We go through 14 compounds from ChEMBL document CHEMBL1131754, “2-heterosubstituted-3-(4-methylsulfonyl)phenyl-5-trifluoromethyl pyridines as selective and orally active cyclooxygenase-2 inhibitors” (Bioorg Med Chem Lett, 1999).

The nature of series [1]: Half-life in rats was determined. In kind it is ADME, organism-based. Particulars: rat, in vivo.
Series [2] is described as follows: Oral bioavailability in rat. Type of series: ADME, organism-based. Particulars: in vivo.
For series [3], the system named is Rattus norvegicus. The series can be described thus: Compound was tested in vivo for its efficacy in the rat paw edema assay. In kind it is functional.
Series [4] has as its system Rattus norvegicus. The series can be described thus: Compound was tested in vivo for its efficacy in the rat pyresis assay. In kind it is functional.
Series [5] deals with T1, Prostaglandin G/H synthase 2 (Homo sapiens, UniProt P35354).
T1 sequence (P35354 whole entry): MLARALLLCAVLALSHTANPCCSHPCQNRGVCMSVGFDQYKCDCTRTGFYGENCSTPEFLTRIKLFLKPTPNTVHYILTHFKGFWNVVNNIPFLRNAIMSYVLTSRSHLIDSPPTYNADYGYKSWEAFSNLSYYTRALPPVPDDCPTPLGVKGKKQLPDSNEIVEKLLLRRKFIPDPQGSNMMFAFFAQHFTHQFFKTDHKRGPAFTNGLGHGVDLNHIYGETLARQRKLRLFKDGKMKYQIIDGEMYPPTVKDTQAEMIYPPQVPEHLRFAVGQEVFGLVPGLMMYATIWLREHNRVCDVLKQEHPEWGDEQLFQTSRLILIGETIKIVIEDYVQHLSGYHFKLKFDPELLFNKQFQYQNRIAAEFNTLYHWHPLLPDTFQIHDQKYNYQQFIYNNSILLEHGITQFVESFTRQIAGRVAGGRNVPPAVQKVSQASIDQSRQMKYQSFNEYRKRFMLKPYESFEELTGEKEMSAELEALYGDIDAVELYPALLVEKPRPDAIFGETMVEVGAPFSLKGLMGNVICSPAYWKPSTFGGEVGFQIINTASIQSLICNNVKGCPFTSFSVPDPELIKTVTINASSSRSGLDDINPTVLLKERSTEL
Type of series: cell-based, CHO whole.
Description: Inhibition of Prostaglandin G/H synthase 2 in CHO whole cell assay

For series [6], the target named is T1, Prostaglandin G/H synthase 2.
Description: Inhibition of Prostaglandin G/H synthase 2 in human whole blood (HWB) assay
Series [7] has as its target T2, Prostaglandin G/H synthase 1 (Homo sapiens, UniProt P23219).
Description: Inhibition of Prostaglandin G/H synthase 1 in human whole blood (HWB) assay
Series [8] deals with Rattus norvegicus. The series can be described thus: Compound was tested in vivo for its efficacy in the model of carrageenan-induced hyperalgesia in rats. Particulars: read-out: ID50 (the source's name). Type of series: functional.
Series [9] in a line: Maximum concentration in rats. In kind it is ADME, organism-based. Particulars: rat, in vivo.
Series [10] is described as follows: Half life in rats. In kind it is ADME, organism-based. Particulars: rat, in vivo.
Series [11] can be described thus: Cmax in rats determined 6 hours after oral dosing of 20 mg/kg. In kind it is ADME, organism-based. Details: dose 20 mg/kg, route oral. Particulars: rat, in vivo.
Series [12] in a line: Half-life in rats. In kind it is ADME, organism-based. Particulars: rat, in vivo.
For series [13], the target named is T2, Prostaglandin G/H synthase 1. The series can be described thus: In vitro inhibitory concentration required against Cyclooxygenase-1 (COX-1) determined in human whole blood (HWB) assay. In kind it is tissue-based.
Series [14] is described as follows: Half-life in rats with metabolic oxidation. Particulars: rat, in vivo. Type of series: ADME, organism-based.
The nature of series [15]: Maximum concentration in rats at 1-2 hours. Particulars: rat, in vivo. Type of series: ADME, organism-based.

T2 sequence (P23219 whole entry): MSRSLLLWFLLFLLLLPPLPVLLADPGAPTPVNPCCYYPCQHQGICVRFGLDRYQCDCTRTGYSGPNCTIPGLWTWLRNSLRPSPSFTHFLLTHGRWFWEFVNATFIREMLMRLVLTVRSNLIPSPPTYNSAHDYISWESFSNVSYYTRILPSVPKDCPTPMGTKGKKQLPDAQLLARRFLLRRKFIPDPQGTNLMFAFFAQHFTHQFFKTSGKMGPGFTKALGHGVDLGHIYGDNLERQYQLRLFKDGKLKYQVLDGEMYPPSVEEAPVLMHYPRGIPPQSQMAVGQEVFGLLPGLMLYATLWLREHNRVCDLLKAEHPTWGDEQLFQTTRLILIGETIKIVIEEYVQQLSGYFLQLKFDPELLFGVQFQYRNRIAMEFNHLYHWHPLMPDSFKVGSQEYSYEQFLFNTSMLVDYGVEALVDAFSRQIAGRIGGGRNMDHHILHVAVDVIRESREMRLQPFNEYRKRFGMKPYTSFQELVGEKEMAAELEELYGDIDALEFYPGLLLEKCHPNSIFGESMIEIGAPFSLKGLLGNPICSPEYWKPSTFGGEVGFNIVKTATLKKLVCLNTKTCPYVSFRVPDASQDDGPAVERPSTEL

One may read the half-life as the time needed for the level to fall by half in the phase considered. A word on the bioavailability: it is the share of a dose that reaches the circulation, judged against a reference dose that is usually intravenous. Low values mean poor availability, high ones good availability. In general, IC50 refers to the concentration at which inhibition is half-maximal. Regarding `CS(=O)(=O)c1ccc(-c2cc(C(F)(F)F)cnc2N2CCCC(CO)C2)cc1` (stereo not drawn), the half-life in [1] is less than 2 h. The bioavailability in series [2] was greater than 75%. Moreover, the values for the ED50 in the series on Rattus norvegicus [3] and in the series with Rattus norvegicus [4] were 1.4 mg/kg and 0.5 mg/kg, respectively. Further, the IC50 is less than 200 nM in series [5], 800 nM in series [6] and 41000 nM in [7].
With `COc1ccc2c(c1)c(CC(=O)O)c(C)n2C(=O)c1ccc(Cl)cc1` [INDOMETHACIN], the ED50 in the series with Rattus norvegicus [3] stood at 2 mg/kg; in the series on Rattus norvegicus [4], 1.1 mg/kg; in the series on Rattus norvegicus [8], 1.5 mg/kg.
With `CCC(O)(CC)[C@H](C)Oc1ncc(C(F)(F)F)cc1-c1ccc(S(C)(=O)=O)cc1`, the bioavailability in [2] is greater than 75%. Also, the ED50 in the series on Rattus norvegicus [3] turned out to be 2.8 mg/kg; with Rattus norvegicus [4], 1.3 mg/kg. Moreover, the IC50 is less than 200 nM in [5], 4700 nM in series [6] and greater than 100000 nM in series [7].
Consider `CS(=O)(=O)c1ccc(-c2cc(C(F)(F)F)cnc2OCc2ccc(Cl)cc2)cc1`, for which the IC50 in series [5] was less than 200 nM; in [6], greater than 33000 nM; in series [7], greater than 100000 nM.
For the compound `CS(=O)(=O)c1ccc(-c2cc(Br)sc2-c2ccc(F)cc2)cc1` [DUP-697], the ED50 in the series with Rattus norvegicus [3] was determined as 1.3 mg/kg.
Regarding `CS(=O)(=O)c1ccc(-c2cc(C(F)(F)F)cnc2OC(C(F)(F)F)C(F)(F)F)cc1`, the half-inhibitory concentration (IC50) in [5] is less than 200 nM; in series [6], 500 nM; in [7], greater than 100000 nM.
Usually Cmax stands for the highest concentration seen after dosing. `C[C@]1(O)CCC[C@H]1Oc1ncc(C(F)(F)F)cc1-c1ccc(S(C)(=O)=O)cc1`: the bioavailability in series [2] was greater than 75%. The compound also displayed a Cmax in series [9] of 9 µM. For the same compound, the ED50 in the series on Rattus norvegicus [3] came out at 0.4 mg/kg; in the series on Rattus norvegicus [4] it was 1.6 mg/kg. Also, the half-life in series [10] was no more than 4 h. For the same compound, in series [7], the IC50 is greater than 100000 nM.
For `CS(=O)(=O)c1ccc(-c2cc(C(F)(F)F)cnc2OCC(F)(F)F)cc1`, the Cmax in [11] was determined as 2.4 µM. In the series on Rattus norvegicus [3], this compound returned an ED50 of 2.4 mg/kg. In addition, the half-maximal inhibitory concentration (IC50) in [5] is less than 200 nM; in series [6] it was 500 nM; in series [7], greater than 100000 nM.
Compound `CC(C)(O)COc1ncc(C(F)(F)F)cc1-c1ccc(S(C)(=O)=O)cc1` registered a half-life in series [12] greater than 12 h. The compound also had a bioavailability in series [2] greater than 75%. Moreover, the ED50 in the series with Rattus norvegicus [3] is 1.9 mg/kg; in the series with Rattus norvegicus [4] it was 6.8 mg/kg. The IC50 in [5] is less than 200 nM; in [6], 1000 nM; in series [7], greater than 100000 nM.
Regarding `CS(=O)(=O)c1ccc(-c2cc(C(F)(F)F)cnc2Oc2ccccc2)cc1`, the IC50 in series [13] was less than 1240 nM; in series [5], less than 200 nM; in series [6], less than 400 nM.
With `C[C@H](CO)Sc1ncc(C(F)(F)F)cc1-c1ccc(S(C)(=O)=O)cc1`, the half-life in [14] is less than 2 h. In addition, the bioavailability in series [2] is greater than 75%. Further, the ED50 was found to be 0.3 mg/kg with Rattus norvegicus [3], 0.3 mg/kg in the series with Rattus norvegicus [4] and 0.65 mg/kg with Rattus norvegicus [8]. For the same compound, the IC50 was less than 200 nM in [5], 140 nM in series [6] and 29000 nM in series [7].
As to `CC(C)(O)CSc1ncc(C(F)(F)F)cc1-c1ccc(S(C)(=O)=O)cc1`, the half-life in series [1] is greater than 12 h. This compound came in with a bioavailability in series [2] greater than 75%. Further, the figures for the ED50 in the series with Rattus norvegicus [3] and with Rattus norvegicus [4] were 1.5 mg/kg and 0.5 mg/kg, respectively.
In series [12], `CS(=O)(=O)c1ccc(-c2cc(C(F)(F)F)cnc2OCC2(O)CCCC2)cc1` displayed a half-life of no more than 4 h. Besides, the bioavailability in [2] is greater than 75%. In [15], this compound had a Cmax of 9 µM. The ED50 in the series with Rattus norvegicus [3] worked out at 1.8 mg/kg; with Rattus norvegicus [4], 2.2 mg/kg. In [7], 83000 nM corresponded to half-maximal inhibition (IC50).
Consider `C[C@H](Oc1ncc(C(F)(F)F)cc1-c1ccc(S(C)(=O)=O)cc1)C(C)(C)O`, for which the bioavailability in series [2] is greater than 75%. Further, the values for the ED50 in the series with Rattus norvegicus [3] and in the series with Rattus norvegicus [4] were 2.2 mg/kg and 0.8 mg/kg, respectively. The values for the IC50 in series [5], in series [6] and in series [7] were less than 200 nM, 460 nM and greater than 100000 nM, respectively.
